Legend:
Type in all cases: cell-based
HKe-3 (K-RAS^−/+) = assay: Cell viability (Syto60); conditions: 72 hours; for cooperation with / sensitization to AZ-628 (cell viability): K-RAS wild-type cells (HKe-3), 1 µM AZ-628
Description: (§1) All colon cancer cell lines were maintained in DMEM supplemented with penicillin (100 units/mL), streptomycin (100 μg/mL), and 10% fetal bovine serum (FBS). The rectal cancer cell line (Car1) was maintained in DMEM/F12 supplemented with penicillin (100 units/mL)/streptomycin (50 μg/mL), and 5% FBS. […] The target sequences for knockdowns can be found in Table S2. In drug treatment experiments, cells were plated for 24 hours prior to exposure to drug. AZ-628 was obtained from AstraZeneca. CI-1040 was obtained from Pfizer. R406 was synthesized in the Gray laboratory. BAY61-3606 and IKK VII were purchased from EMD Biosciences. BAY derivatives were synthesized for this study.
(§2) Cell cycle analysis was performed via FACS-based propidium iodide quantification, using standard methods. To measure cell viability, cells were grown in 96-well plates in the presence or absence of drug for 72 hours, fixed with 4% paraformaldehyde, and then stained with Syto60 (Invitrogen). Plates were imaged and quantified using the LiCor Odyssey system (LiCor).

[1] = test system: phospho-MEK1 (Ser217/Ser221) and phospho-ERK1/2 (Thr202/Tyr204, Thr185/Tyr187); assay: Bio-Plex phospho-MEK1 and phospho-ERK1/2; conditions: 45 minute exposure, 1 µM, K-RAS wild-type and mutant cells
Description: (§3) The Bio-Plex assay system was used to measure signaling in drug-treated cells. Briefly, cells were incubated in the presence of drug for various amounts of time and then lysed in Bio-Rad cell lysis buffer (Bio-Rad). Protein quantification was performed using BCA assay (Pierce) and 5 µg of protein from each sample was used for Bio-Plex analysis. Phospho-signaling assays were performed using available phospho-signaling assay kits and quantified on a Bio-Plex 200 system (Bio-Rad): p-Iκβα (Ser32/Ser36), p-JNK (Thr183/Tyr185), p-MEK1 (Ser217/Ser221), p-ERK1/2 (Thr202/Tyr204, Thr185/Tyr187), p-p90RSK (Thr359/Ser363), p-p38 (Thr180/Tyr182), p-c-JUN (Ser63), p-ATF2 (Thr71), p-AKT (Ser473), p-S6 (Ser235/Ser236), p-STAT3 (Ser727), p-STAT3 (Tyr705), and p-GSK3α/β (Ser21/Ser9). Bio-Plex assay for total MEK1 was also performed as a loading control.

[2] = test system: phospho-Iκβα (Ser32/Ser36); assay: Bio-Plex phospho-Iκβα; conditions: HKe-3 cells, 1 µM
Description: as §3

[3] = test system: phospho-JNK (Thr183/Tyr185); assay: Bio-Plex phospho-JNK; conditions: HKe-3 cells, 1 µM
Description: as §3

HCT-116 (K-RAS^G13D/+) = assay: Cell viability (Syto60); conditions: 72 hours, HCT-116 compared to HKe-3, normalized to DMSO
Description: as §1, §2

DLD-1 cells = assay: Cell viability (Syto60); conditions: DLD-1, 72 hours, 1 μM
Description: as §1, §2

DKs-8 = assay: Cell viability (Syto60); conditions: DKs-8, 72 hours, 1 μM
Description: as §1, §2

HT-29 (B-RAF^V600E/+) = assay: Cell cycle analysis (propidium iodide FACS); conditions: cell lines that express mutant B-RAF (HT-29)
Description: as §2

[4] = test system: colorectal cancer cells expressing mutant B-RAF (V600E) (HT-29, RKO); assay: Cell viability (Syto60); conditions: HT-29 and RKO, 72 hours
Description: as §1, §2

Which results are given for `O=C(c1ccc(Nc2nccc(-c3cc4ccccc4s3)n2)cc1)N1CCC(N2CCCC2)CC1` [IKK inhibitor VII]?
sensitization to AZ-628 (cell viability) (HKe-3 (K-RAS^−/+); HKe-3 cells with MAP4K2 knockdown, 1 µM + 1 µM AZ-628): abrogated the ability of IKK inhibitor VII to sensitize; cooperation with / sensitization to AZ-628 (cell viability) (HKe-3 (K-RAS^−/+)): enhanced the effect of AZ-628

With `Oc1c2ccccc2c2c3c(cccc13)N=N2` [SP600125] as the compound, how does the “cooperation with / sensitization to AZ-628 (cell viability)” value (HKe-3 (K-RAS^−/+)) read?
The value was “did not affect AZ-628 sensitivity”.

How did the “MEK and ERK phosphorylation” value [1] turn out when `Cc1ccc(NC(=O)c2cccc(C(C)(C)C#N)c2)cc1Nc1ccc2ncn(C)c(=O)c2c1` [AZ-628] was run?
Its value is “suppressed MEK and ERK phosphorylation”.

What about the Iκβα phosphorylation [2] of the same compound?
The Iκβα phosphorylation was “further induced”.

What about the JNK activation [3] of the same compound?
Its JNK activation is “strongly activated”.

And the “sensitivity of cells expressing mutant K-RAS (cell viability)” value (HCT-116 (K-RAS^G13D/+))?
Its value is “relatively sensitive”.

What does the source list for `COc1cc(Nc2ncc(F)c(Nc3ccc4c(n3)NC(=O)C(C)(C)O4)n2)cc(OC)c1OC` [R406]?
sensitivity (cell viability) (DLD-1 cells): did not exhibit sensitivity; sensitivity (cell viability) (DKs-8): did not exhibit sensitivity

Which results are given for `O=C(NOCC1CC1)c1ccc(F)c(F)c1Nc1ccc(I)cc1Cl` [CI-1040]?
cell cycle effect (HT-29 (B-RAF^V600E/+)): induced G1 arrest; cell viability, combination of BAY61-3606 and CI-1040 [4]: cooperated to produce an enhanced response; sensitivity of cells expressing mutant B-RAF (cell viability) ([4]; single agent): sensitive; sensitivity of cells expressing mutant K-RAS (cell viability) (HCT-116 (K-RAS^G13D/+)): insensitive

Source: article PMC3399817 (PLoS ONE, 2012)
